Data taken from ChEMBL document CHEMBL4507294, “Data for DCP probe MSD-CYP11B2” (2021).

Experiments:
[1] = test system: Tyrosine-protein kinase ABL1 (Homo sapiens), P00519 [F317I]; conditions: Compound concentration 1000.0 nM
[2] = test system: Tyrosine-protein kinase ABL1 (Homo sapiens), P00519 [M351T]; conditions: Compound concentration 1000.0 nM
[3] = test system: Tyrosine-protein kinase ABL1 (Homo sapiens), P00519 [T315I]; conditions: Compound concentration 1000.0 nM
[4] = target: Atypical kinase COQ8B, mitochondrial (Homo sapiens) (UniProt Q96D53); conditions: Compound concentration 1000.0 nM
[5] = target: Aurora kinase B (Homo sapiens) (UniProt Q96GD4); conditions: Compound concentration 1000.0 nM
[6] = target: Bone morphogenetic protein receptor type-1A (Homo sapiens) (UniProt P36894); conditions: Compound concentration 1000.0 nM
[7] = target: Calcium/calmodulin-dependent protein kinase type 1G (Homo sapiens) (UniProt Q96NX5); conditions: Compound concentration 1000.0 nM
[8] = target: Calcium/calmodulin-dependent protein kinase type II subunit beta (Homo sapiens) (UniProt Q13554); conditions: Compound concentration 1000.0 nM
[9] = target: Casein kinase I isoform gamma-1 (Homo sapiens) (UniProt Q9HCP0); conditions: Compound concentration 1000.0 nM
[10] = test system: Epidermal growth factor receptor (Homo sapiens), P00533 [UNDEFINED MUTATION]; conditions: Compound concentration 1000.0 nM
[11] = target: Vascular endothelial growth factor receptor 3 (Homo sapiens) (UniProt P35916); conditions: Compound concentration 1000.0 nM
[12] = target: Beta-adrenergic receptor kinase 1 (Homo sapiens) (UniProt P25098); conditions: Compound concentration 1000.0 nM
[13] = target: Glycogen synthase kinase-3 alpha (Homo sapiens) (UniProt P49840); conditions: Compound concentration 1000.0 nM
[14] = target: Homeodomain-interacting protein kinase 4 (Homo sapiens) (UniProt Q8NE63); conditions: Compound concentration 1000.0 nM
[15] = target: Tyrosine-protein kinase JAK2 (Homo sapiens) (UniProt O60674); conditions: Compound concentration 1000.0 nM
[16] = target: LIM domain kinase 2 (Homo sapiens) (UniProt P53671); conditions: Compound concentration 1000.0 nM
[17] = target: MAP/microtubule affinity-regulating kinase 3 (Homo sapiens) (UniProt P27448); conditions: Compound concentration 1000.0 nM
[18] = target: Dual specificity mitogen-activated protein kinase kinase 3 (Homo sapiens) (UniProt P46734); conditions: Compound concentration 1000.0 nM
[19] = target: MAP kinase-interacting serine/threonine-protein kinase 2 (Homo sapiens) (UniProt Q9HBH9); conditions: Compound concentration 1000.0 nM
[20] = target: Serine/threonine-protein kinase Nek9 (Homo sapiens) (UniProt Q8TD19); conditions: Compound concentration 1000.0 nM
[21] = target: Mitogen-activated protein kinase kinase kinase 14 (Homo sapiens) (UniProt Q99558); conditions: Compound concentration 1000.0 nM
[22] = target: Serine/threonine-protein kinase PAK 3 (Homo sapiens) (UniProt O75914); conditions: Compound concentration 1000.0 nM
[23] = target: Serine/threonine-protein kinase PAK 4 (Homo sapiens) (UniProt O96013); conditions: Compound concentration 1000.0 nM
[24] = target: Cyclin-dependent kinase 16 (Homo sapiens) (UniProt Q00536); conditions: Compound concentration 1000.0 nM
[25] = target: Phosphatidylinositol 4,5-bisphosphate 3-kinase catalytic subunit alpha isoform (Homo sapiens) (UniProt P42336); conditions: Compound concentration 1000.0 nM
[26] = test system: Phosphatidylinositol 4,5-bisphosphate 3-kinase catalytic subunit alpha isoform (Homo sapiens), P42336 [M1043I]; conditions: Compound concentration 1000.0 nM
[27] = target: Phosphatidylinositol 4,5-bisphosphate 3-kinase catalytic subunit gamma isoform (Homo sapiens) (UniProt P48736); conditions: Compound concentration 1000.0 nM
[28] = target: Phosphatidylinositol 4-kinase beta (Homo sapiens) (UniProt Q9UBF8); conditions: Compound concentration 1000.0 nM
[29] = target: 1-phosphatidylinositol 3-phosphate 5-kinase (Homo sapiens) (UniProt Q9Y2I7); conditions: Compound concentration 1000.0 nM
[30] = target: Serine/threonine-protein kinase PLK2 (Homo sapiens) (UniProt Q9NYY3); conditions: Compound concentration 1000.0 nM
[31] = target: Serine/threonine-protein kinase D3 (Homo sapiens) (UniProt O94806); conditions: Compound concentration 1000.0 nM
[32] = target: cGMP-dependent protein kinase 1 (Homo sapiens) (UniProt Q13976); conditions: Compound concentration 1000.0 nM
[33] = target: Protein-tyrosine kinase 2-beta (Homo sapiens) (UniProt Q14289); conditions: Compound concentration 1000.0 nM
[34] = target: Receptor-interacting serine/threonine-protein kinase 4 (Homo sapiens) (UniProt P57078); conditions: Compound concentration 1000.0 nM
[35] = target: Dual serine/threonine and tyrosine protein kinase (Homo sapiens) (UniProt Q6XUX3); conditions: Compound concentration 1000.0 nM
[36] = target: Serine/threonine-protein kinase Sgk2 (Homo sapiens) (UniProt Q9HBY8); conditions: Compound concentration 1000.0 nM
[37] = target: Serine/threonine-protein kinase SIK1 (Homo sapiens) (UniProt P57059); conditions: Compound concentration 1000.0 nM
[38] = target: SNF-related serine/threonine-protein kinase (Homo sapiens) (UniProt Q9NRH2); conditions: Compound concentration 1000.0 nM
[39] = target: Tyrosine-protein kinase Srms (Homo sapiens) (UniProt Q9H3Y6); conditions: Compound concentration 1000.0 nM
[40] = target: Serine/threonine-protein kinase TBK1 (Homo sapiens) (UniProt Q9UHD2); conditions: Compound concentration 1000.0 nM
[41] = target: TGF-beta receptor type-1 (Homo sapiens) (UniProt P36897); conditions: Compound concentration 1000.0 nM
[42] = target: Non-receptor tyrosine-protein kinase TYK2 (Homo sapiens) (UniProt P29597); conditions: Compound concentration 1000.0 nM
[43] = target: Serine/threonine-protein kinase WNK2 (Homo sapiens) (UniProt Q9Y3S1); conditions: Compound concentration 1000.0 nM
[44] = target: 5-hydroxytryptamine receptor 1A (Homo sapiens) (UniProt P08908); conditions: Compound concentration 10.0 uM
[45] = target: Sigma intracellular receptor 2 (Homo sapiens) (UniProt Q5BJF2); conditions: Compound concentration 10.0 uM
Sigma intracellular receptor 2 (Homo sapiens), sequence (Q5BJF2 whole entry): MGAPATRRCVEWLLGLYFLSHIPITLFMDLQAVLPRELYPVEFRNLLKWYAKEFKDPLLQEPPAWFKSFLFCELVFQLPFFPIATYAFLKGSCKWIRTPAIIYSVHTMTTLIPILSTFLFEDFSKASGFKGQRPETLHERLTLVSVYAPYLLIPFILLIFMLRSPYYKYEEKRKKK

Phosphatidylinositol 4,5-bisphosphate 3-kinase catalytic subunit alpha isoform (Homo sapiens), sequence (P42336 whole entry, canonical isoform): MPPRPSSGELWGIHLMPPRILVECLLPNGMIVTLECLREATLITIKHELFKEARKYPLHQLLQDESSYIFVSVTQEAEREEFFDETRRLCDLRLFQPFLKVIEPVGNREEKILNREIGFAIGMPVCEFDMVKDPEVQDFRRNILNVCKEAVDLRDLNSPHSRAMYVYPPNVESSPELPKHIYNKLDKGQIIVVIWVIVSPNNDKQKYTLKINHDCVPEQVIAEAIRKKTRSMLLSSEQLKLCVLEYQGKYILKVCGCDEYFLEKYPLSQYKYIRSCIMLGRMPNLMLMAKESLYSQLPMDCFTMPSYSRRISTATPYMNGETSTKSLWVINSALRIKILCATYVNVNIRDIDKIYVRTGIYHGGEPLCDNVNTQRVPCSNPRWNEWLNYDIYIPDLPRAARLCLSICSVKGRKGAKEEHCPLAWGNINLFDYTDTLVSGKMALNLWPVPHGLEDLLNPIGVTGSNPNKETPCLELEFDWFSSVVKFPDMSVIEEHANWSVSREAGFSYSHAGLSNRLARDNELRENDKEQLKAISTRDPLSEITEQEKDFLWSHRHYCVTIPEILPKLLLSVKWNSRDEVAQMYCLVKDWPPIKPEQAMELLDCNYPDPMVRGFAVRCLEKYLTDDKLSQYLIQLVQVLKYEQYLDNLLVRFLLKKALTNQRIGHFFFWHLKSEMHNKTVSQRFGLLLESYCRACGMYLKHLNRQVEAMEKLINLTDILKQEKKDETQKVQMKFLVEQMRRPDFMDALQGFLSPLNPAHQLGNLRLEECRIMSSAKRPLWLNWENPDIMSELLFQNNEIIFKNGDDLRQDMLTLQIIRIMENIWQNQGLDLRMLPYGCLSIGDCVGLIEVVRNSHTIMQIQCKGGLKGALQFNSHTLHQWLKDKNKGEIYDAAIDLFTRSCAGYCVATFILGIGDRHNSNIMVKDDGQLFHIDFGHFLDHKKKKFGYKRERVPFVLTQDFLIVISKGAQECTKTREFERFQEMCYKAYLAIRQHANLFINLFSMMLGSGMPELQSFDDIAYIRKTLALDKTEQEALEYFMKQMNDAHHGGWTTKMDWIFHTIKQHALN
Tyrosine-protein kinase Srms (Homo sapiens), sequence (Q9H3Y6 whole entry): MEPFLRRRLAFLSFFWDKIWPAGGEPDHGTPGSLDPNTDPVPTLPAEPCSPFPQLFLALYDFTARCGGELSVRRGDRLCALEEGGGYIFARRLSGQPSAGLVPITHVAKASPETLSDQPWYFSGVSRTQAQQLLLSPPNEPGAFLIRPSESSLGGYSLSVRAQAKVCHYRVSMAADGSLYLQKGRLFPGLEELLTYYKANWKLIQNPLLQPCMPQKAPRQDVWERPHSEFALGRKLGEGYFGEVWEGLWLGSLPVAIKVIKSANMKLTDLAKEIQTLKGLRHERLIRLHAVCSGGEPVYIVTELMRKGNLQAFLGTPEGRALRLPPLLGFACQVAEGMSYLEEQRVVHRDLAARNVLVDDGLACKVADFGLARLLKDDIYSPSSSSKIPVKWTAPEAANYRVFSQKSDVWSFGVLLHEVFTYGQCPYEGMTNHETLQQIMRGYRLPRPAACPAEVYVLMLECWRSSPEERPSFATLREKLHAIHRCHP
Casein kinase I isoform gamma-1 (Homo sapiens), sequence (Q9HCP0 whole entry, looked up, canonical isoform): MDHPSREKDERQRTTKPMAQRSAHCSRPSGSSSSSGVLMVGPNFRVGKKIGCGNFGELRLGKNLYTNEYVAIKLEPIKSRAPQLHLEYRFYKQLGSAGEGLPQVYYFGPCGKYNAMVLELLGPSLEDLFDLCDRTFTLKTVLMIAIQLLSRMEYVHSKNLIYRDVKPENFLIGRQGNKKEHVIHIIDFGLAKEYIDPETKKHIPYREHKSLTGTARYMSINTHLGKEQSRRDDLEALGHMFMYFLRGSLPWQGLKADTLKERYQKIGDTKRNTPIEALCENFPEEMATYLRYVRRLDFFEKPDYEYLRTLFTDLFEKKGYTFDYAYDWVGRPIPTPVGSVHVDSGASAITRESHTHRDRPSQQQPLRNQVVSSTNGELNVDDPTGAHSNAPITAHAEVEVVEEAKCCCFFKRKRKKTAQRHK
MAP kinase-interacting serine/threonine-protein kinase 2 (Homo sapiens), sequence (Q9HBH9 whole entry, looked up): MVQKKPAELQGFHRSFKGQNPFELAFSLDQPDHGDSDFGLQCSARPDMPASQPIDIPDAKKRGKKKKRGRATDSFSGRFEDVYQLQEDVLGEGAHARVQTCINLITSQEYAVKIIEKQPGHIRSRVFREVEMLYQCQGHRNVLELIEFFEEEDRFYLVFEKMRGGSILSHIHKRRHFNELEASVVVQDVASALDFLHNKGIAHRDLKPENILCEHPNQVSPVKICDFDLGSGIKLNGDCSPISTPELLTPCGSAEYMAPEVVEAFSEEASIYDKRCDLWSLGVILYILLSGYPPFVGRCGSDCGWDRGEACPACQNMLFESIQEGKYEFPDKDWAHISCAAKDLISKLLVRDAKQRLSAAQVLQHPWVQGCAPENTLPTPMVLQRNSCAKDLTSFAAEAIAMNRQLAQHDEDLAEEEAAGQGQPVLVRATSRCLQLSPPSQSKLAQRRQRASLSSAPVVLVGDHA
Calcium/calmodulin-dependent protein kinase type 1G (Homo sapiens), sequence (Q96NX5 whole entry): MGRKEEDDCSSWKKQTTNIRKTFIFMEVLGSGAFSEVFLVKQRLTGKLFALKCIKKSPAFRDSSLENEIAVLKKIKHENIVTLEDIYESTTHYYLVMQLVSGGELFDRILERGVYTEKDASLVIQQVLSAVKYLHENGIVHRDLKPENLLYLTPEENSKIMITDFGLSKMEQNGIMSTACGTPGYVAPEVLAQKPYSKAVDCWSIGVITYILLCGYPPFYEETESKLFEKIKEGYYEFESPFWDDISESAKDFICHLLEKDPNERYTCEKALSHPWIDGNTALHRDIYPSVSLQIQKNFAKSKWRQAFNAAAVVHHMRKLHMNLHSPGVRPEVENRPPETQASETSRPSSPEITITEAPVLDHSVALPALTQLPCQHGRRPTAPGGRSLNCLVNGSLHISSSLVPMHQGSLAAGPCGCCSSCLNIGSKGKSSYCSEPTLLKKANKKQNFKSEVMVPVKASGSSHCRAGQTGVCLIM
Phosphatidylinositol 4,5-bisphosphate 3-kinase catalytic subunit gamma isoform (Homo sapiens), sequence (P48736 whole entry, looked up, canonical isoform): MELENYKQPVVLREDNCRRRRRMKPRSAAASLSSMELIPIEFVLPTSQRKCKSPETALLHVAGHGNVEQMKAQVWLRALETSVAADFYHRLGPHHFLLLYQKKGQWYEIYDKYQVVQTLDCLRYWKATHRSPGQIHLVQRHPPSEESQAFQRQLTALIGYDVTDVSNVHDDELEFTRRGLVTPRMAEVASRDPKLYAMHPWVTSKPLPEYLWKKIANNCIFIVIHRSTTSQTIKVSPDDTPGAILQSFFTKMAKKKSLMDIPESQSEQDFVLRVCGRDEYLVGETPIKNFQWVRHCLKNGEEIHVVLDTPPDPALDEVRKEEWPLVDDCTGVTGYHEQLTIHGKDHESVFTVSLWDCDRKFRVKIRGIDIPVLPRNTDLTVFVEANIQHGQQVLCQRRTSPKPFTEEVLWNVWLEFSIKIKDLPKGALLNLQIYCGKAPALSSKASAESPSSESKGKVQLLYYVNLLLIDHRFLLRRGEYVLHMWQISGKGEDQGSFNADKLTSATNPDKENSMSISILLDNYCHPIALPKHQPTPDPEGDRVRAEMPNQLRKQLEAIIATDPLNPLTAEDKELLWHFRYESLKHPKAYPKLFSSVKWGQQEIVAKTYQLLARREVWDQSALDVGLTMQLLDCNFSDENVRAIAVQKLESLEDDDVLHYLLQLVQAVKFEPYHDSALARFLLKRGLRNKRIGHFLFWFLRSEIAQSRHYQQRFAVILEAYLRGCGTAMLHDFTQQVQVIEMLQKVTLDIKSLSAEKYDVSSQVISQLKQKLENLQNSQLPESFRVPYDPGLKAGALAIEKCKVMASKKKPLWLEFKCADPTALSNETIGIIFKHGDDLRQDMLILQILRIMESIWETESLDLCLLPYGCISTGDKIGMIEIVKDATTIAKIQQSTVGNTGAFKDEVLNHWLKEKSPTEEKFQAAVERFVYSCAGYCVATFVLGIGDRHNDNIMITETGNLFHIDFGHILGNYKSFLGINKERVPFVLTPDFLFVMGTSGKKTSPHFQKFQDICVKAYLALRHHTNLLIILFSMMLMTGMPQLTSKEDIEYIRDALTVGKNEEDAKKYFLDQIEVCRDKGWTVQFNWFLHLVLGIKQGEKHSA
Serine/threonine-protein kinase SIK1 (Homo sapiens), sequence (P57059 whole entry): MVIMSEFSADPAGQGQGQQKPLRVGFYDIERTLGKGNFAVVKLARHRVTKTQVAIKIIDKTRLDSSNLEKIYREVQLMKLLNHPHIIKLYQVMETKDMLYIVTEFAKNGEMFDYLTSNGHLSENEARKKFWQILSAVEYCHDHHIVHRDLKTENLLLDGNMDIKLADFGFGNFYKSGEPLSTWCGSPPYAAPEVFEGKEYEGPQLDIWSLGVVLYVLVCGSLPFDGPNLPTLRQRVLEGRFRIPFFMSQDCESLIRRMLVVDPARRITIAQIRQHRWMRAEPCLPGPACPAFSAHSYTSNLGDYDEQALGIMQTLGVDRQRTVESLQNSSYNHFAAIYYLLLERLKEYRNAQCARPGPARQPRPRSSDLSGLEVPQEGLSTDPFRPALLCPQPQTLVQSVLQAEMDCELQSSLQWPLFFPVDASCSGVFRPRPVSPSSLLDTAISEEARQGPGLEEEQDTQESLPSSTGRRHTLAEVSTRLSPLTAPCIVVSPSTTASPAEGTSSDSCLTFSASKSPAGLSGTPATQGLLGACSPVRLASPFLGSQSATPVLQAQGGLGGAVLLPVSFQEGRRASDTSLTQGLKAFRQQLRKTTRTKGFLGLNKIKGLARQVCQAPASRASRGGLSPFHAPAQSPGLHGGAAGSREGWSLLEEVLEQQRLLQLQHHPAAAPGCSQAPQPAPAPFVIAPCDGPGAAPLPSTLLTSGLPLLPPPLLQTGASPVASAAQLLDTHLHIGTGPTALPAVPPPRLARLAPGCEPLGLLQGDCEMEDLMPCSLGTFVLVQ

CC(C)(O)c1cncc(-c2nc3ccc(F)cc3n2C2CC2)c1 [MSD-CYP11B2]
inactive: residual activity [1] 100% | residual activity [2] 100% | residual activity [3] 100% | residual activity [4] 100% | residual activity [5] 100% | residual activity [6] 88% | residual activity [7] 100% | residual activity [8] 100% | residual activity [9] 100% | residual activity [10] 100% | residual activity [11] 100% | residual activity [12] 100% | residual activity [13] 100% | residual activity [14] 100% | residual activity [15] 100% | residual activity [16] 100% | residual activity [17] 100% | residual activity [18] 100% | residual activity [19] 100% | residual activity [20] 100% | residual activity [21] 100% | residual activity [22] 100% | residual activity [23] 100% | residual activity [24] 100% | residual activity [25] 100% | residual activity [26] 100% | residual activity [27] 77% | residual activity [28] 100% | residual activity [29] 99% | residual activity [30] 100% | residual activity [31] 100% | residual activity [32] 78% | residual activity [33] 100% | residual activity [34] 100% | residual activity [35] 100% | residual activity [36] 100% | residual activity [37] 100% | residual activity [38] 86% | residual activity [39] 100% | residual activity [40] 72% | residual activity [41] 90% | residual activity [42] 94% | residual activity [43] 100% | inhibition [44] 1.22% | inhibition [45] 22.7%

FC(F)(F)c1ccc2c(c1)nc(-c1cccnc1)n2C1CC1 [MSD-CYP11B2-Negative-control]
inactive: residual activity [1] 100% | residual activity [2] 100% | residual activity [3] 100% | residual activity [4] 100% | residual activity [5] 100% | residual activity [6] 93% | residual activity [7] 100% | residual activity [8] 100% | residual activity [9] 100% | residual activity [10] 100% | residual activity [11] 91% | residual activity [12] 100% | residual activity [13] 100% | residual activity [14] 100% | residual activity [15] 100% | residual activity [16] 100% | residual activity [17] 100% | residual activity [18] 100% | residual activity [19] 100% | residual activity [20] 100% | residual activity [21] 100% | residual activity [22] 100% | residual activity [23] 100% | residual activity [24] 100% | residual activity [25] 100% | residual activity [26] 100% | residual activity [27] 92% | residual activity [28] 94% | residual activity [29] 99% | residual activity [30] 94% | residual activity [31] 100% | residual activity [32] 87% | residual activity [33] 100% | residual activity [34] 95% | residual activity [35] 100% | residual activity [36] 100% | residual activity [37] 100% | residual activity [38] 82% | residual activity [39] 95% | residual activity [40] 82% | residual activity [41] 78% | residual activity [42] 100% | residual activity [43] 100% | inhibition [44] 0.44% | inhibition [45] 26.5%
